In article PMC5933782, “Molecular structures of cdc2-like kinases in complex with a new inhibitor chemotype” (PLoS ONE, 2018):

Each compound was assayed on CDK1/cyclin B (assay: radiometric protein kinase assay). Conditions: 10 µM concentration; ± SEM.
Format: biochemical, starfish
For `Cc1[nH]c2c3c(ccc2c1C)CNC3=O` [S18b], the “Residual enzyme activity CDK1/cyclin B” value was 93±26%.
`CCc1c(-c2ccccc2)[nH]c2c3c(ccc12)CNC3=O` [S18d] was tested, and the “Residual enzyme activity CDK1/cyclin B” value was 109±30%.

Each compound was assayed against T1, CDK2/cyclin A (Homo sapiens, UniProt P24941) (assay: radiometric protein kinase assay). Conditions: 10 µM concentration; ± SEM.
T1 construct: made in house
Format: biochemical
With `Cc1[nH]c2c3c(ccc2c1C)CNC3=O` [S18b] the “Residual enzyme activity CDK2/cyclin A” value was 103±2%.
In the case of `CCc1c(-c2ccccc2)[nH]c2c3c(ccc12)CNC3=O` [S18d], the “Residual enzyme activity CDK2/cyclin A” value is reported as 104±2%.

What follows are compounds tested against T2, CDK5/p25 (Homo sapiens, UniProt Q00535) (assay: radiometric protein kinase assay). Conditions: 10 µM concentration; ± SEM.
T2 construct: made in house
T2 sequence (Q00535 whole entry): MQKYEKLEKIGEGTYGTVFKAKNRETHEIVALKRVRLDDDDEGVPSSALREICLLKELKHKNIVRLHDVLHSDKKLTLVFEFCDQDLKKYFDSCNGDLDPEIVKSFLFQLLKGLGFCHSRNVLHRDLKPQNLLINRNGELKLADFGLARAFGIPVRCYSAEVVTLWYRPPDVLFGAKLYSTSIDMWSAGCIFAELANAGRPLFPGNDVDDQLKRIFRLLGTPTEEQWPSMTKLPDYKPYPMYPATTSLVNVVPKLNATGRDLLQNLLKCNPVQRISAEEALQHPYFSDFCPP
T2 sequence (Q15078 99-307 partner limits assumed): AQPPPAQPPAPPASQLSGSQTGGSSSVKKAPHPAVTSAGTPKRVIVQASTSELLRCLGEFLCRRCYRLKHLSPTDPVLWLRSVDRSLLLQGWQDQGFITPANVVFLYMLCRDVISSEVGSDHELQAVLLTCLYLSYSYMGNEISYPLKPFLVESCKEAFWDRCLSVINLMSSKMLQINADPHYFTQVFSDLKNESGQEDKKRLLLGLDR
Format: biochemical
In the case of `Cc1[nH]c2c3c(ccc2c1C)CNC3=O` [S18b], the “Residual enzyme activity CDK5/p25” value is reported as 111±18%.
For `CCc1c(-c2ccccc2)[nH]c2c3c(ccc12)CNC3=O` [S18d], the “Residual enzyme activity CDK5/p25” value was 112±11%.

The compounds below were run on CK1δ/ε (assay: radiometric protein kinase assay). Conditions: 10 µM concentration; ± SEM.
Format: biochemical, porcine
With `Cc1[nH]c2c3c(ccc2c1C)CNC3=O` [S18b] the “Residual enzyme activity CK1” value was 75±3%.
In the case of `CCc1c(-c2ccccc2)[nH]c2c3c(ccc12)CNC3=O` [S18d], the “Residual enzyme activity CK1” value is reported as 86±3%.

Each compound was assayed against DYRK1A (Homo sapiens, UniProt Q13627) (assay: radiometric protein kinase assay). Conditions: 10 µM concentration; ± SEM.
Format: biochemical
For `Cc1[nH]c2c3c(ccc2c1C)CNC3=O` [S18b], the “Residual enzyme activity DYRK 1A” value was 82±5%.
With `CCc1c(-c2ccccc2)[nH]c2c3c(ccc12)CNC3=O` [S18d] the “Residual enzyme activity DYRK 1A” value was 74±14%.

What follows are compounds tested against DYRK1B (Homo sapiens, UniProt Q9Y463) (assay: radiometric protein kinase assay). Conditions: 10 µM concentration; ± SEM.
DYRK1B, sequence (Q9Y463 whole entry): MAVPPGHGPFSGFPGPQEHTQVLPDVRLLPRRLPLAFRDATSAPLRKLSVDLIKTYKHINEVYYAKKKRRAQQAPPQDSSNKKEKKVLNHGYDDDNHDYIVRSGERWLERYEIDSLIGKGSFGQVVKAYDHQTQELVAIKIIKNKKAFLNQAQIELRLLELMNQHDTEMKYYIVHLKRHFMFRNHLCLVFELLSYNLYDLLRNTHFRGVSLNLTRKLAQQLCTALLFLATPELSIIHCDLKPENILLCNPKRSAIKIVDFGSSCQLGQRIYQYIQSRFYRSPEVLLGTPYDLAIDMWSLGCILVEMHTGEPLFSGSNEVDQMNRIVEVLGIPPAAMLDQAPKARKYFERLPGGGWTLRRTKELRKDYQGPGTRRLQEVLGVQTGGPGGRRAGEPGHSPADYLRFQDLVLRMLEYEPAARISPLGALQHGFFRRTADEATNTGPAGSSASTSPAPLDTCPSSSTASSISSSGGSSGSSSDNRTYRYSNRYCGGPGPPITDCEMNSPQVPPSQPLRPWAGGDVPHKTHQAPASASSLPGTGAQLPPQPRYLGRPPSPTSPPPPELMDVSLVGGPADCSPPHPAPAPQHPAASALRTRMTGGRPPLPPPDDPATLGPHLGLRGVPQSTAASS
Format: biochemical
In the case of `Cc1[nH]c2c3c(ccc2c1C)CNC3=O` [S18b], the “Residual enzyme activity DYRK 1B” value is reported as 77±11%.
For `CCc1c(-c2ccccc2)[nH]c2c3c(ccc12)CNC3=O` [S18d], the “Residual enzyme activity DYRK 1B” value was 65±8%.

These compounds were tested against T3, DYRK2 (Homo sapiens, UniProt Q92630) (assay: radiometric protein kinase assay). Conditions: 10 µM concentration; ± SEM.
T3 sequence (Q92630 1-601): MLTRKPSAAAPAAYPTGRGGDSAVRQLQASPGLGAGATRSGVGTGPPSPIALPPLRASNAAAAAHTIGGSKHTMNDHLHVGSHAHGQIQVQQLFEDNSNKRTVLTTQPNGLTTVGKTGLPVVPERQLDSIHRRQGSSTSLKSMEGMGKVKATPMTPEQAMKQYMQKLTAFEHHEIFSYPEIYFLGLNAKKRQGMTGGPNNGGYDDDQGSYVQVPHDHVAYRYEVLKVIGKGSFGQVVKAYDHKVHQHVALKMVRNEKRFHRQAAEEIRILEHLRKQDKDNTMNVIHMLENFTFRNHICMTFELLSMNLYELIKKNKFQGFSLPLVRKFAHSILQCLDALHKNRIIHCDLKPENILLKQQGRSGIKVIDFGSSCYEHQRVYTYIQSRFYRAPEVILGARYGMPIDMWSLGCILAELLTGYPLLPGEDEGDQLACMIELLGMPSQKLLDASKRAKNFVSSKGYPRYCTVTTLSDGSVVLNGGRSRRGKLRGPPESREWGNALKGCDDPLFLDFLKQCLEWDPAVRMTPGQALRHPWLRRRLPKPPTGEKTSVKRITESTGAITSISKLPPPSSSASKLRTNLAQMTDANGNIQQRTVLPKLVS
Format: biochemical
In the case of `Cc1[nH]c2c3c(ccc2c1C)CNC3=O` [S18b], the “Residual enzyme activity DYRK 2” value is reported as 61±4%.
`CCc1c(-c2ccccc2)[nH]c2c3c(ccc12)CNC3=O` [S18d] was tested, and the “Residual enzyme activity DYRK 2” value was 50±6%.

The compounds below were run against T4, DYRK3 (Homo sapiens, UniProt O43781) (assay: radiometric protein kinase assay). Conditions: 10 µM concentration; ± SEM.
T4 sequence (O43781 1-588): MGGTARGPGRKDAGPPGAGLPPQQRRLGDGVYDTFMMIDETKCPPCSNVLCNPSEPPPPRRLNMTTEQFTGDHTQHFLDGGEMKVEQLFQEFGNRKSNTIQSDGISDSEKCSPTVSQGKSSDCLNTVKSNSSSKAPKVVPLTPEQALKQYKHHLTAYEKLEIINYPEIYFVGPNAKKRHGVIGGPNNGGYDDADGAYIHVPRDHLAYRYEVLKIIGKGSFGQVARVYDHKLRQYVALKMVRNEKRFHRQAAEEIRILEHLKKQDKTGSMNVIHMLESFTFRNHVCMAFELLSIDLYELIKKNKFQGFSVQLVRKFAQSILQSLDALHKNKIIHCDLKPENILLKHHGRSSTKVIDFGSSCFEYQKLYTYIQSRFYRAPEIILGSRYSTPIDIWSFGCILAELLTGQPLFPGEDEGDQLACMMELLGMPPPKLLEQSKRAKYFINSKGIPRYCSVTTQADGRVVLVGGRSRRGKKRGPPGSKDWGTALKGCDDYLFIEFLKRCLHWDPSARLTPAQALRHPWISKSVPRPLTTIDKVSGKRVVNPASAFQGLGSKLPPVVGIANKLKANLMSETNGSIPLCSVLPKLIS
Format: biochemical
`Cc1[nH]c2c3c(ccc2c1C)CNC3=O` [S18b] was tested, and the “Residual enzyme activity DYRK 3” value was 89±8%.
`CCc1c(-c2ccccc2)[nH]c2c3c(ccc12)CNC3=O` [S18d] was tested, and the “Residual enzyme activity DYRK 3” value was 87±5%.

Each compound was assayed on GSK-3 (assay: radiometric protein kinase assay). Conditions: 10 µM concentration; ± SEM.
Format: biochemical, porcine
`Cc1[nH]c2c3c(ccc2c1C)CNC3=O` [S18b] was tested, and the “Residual enzyme activity GSK3” value was 135±18%.
With `CCc1c(-c2ccccc2)[nH]c2c3c(ccc12)CNC3=O` [S18d] the “Residual enzyme activity GSK3” value was 111±7%.

The compounds below were run against CDK9/cyclin T (Homo sapiens, UniProt P50750) (assay: radiometric protein kinase assay). Conditions: 10 µM concentration; ± SEM.
CDK9/cyclin T, sequence (P50750 whole entry): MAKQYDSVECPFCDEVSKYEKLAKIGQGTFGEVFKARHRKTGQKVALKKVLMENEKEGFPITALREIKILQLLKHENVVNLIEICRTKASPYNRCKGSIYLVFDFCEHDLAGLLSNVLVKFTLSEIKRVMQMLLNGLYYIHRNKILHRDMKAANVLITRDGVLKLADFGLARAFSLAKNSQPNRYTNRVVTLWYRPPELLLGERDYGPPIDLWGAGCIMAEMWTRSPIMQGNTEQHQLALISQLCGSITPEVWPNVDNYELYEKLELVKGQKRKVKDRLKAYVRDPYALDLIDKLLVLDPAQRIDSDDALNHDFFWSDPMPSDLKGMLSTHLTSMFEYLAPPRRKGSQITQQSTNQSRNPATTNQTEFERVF
CDK9/cyclin T, sequence (O60563 whole entry partner): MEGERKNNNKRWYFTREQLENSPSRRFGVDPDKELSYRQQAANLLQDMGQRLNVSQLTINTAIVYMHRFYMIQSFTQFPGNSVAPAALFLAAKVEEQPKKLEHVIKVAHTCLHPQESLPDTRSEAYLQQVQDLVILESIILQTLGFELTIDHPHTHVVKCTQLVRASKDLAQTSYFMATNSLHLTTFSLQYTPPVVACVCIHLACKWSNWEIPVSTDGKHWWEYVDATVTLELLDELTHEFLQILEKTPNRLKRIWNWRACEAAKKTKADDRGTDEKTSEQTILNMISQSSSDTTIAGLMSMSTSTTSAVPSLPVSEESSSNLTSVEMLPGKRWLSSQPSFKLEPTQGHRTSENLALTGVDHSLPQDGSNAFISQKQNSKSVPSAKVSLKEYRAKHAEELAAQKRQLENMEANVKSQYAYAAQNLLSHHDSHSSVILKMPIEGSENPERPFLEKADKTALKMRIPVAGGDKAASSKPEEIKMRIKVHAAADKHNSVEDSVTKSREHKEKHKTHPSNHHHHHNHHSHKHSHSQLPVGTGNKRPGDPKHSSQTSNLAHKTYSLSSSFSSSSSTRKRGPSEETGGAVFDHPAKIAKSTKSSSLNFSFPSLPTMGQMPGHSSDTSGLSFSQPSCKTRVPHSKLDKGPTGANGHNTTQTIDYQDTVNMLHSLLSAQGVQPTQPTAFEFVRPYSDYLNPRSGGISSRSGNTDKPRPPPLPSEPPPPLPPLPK
For `Cc1[nH]c2c3c(ccc2c1C)CNC3=O` [S18b], the “Residual enzyme activity CDK9/cyclin T” value was 104±7%.
`CCc1c(-c2ccccc2)[nH]c2c3c(ccc12)CNC3=O` [S18d] was tested, and the “Residual enzyme activity CDK9/cyclin T” value was 100±10%.

What follows are compounds tested against CLK1 (Mus musculus, UniProt P22518) (assay: radiometric protein kinase assay). Conditions: 10 µM concentration; ± SEM.
CLK1, sequence (P22518 whole entry): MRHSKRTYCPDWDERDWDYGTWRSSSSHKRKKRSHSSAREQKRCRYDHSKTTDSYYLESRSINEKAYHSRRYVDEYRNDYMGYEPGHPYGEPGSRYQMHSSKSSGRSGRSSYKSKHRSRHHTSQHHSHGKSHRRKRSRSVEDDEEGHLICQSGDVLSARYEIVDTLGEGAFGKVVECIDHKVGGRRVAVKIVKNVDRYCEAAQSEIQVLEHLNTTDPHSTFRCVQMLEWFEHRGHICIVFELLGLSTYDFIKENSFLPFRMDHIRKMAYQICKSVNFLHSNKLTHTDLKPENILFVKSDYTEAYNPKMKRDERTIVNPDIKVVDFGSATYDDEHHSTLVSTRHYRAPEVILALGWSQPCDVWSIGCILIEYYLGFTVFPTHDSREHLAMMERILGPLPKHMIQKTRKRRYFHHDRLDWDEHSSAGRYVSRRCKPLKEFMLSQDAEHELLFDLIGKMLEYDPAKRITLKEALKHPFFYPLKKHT
In the case of `Cc1[nH]c2c3c(ccc2c1C)CNC3=O` [S18b], the “Residual enzyme activity CLK 1” value is reported as 92±8%.
In the case of `CCc1c(-c2ccccc2)[nH]c2c3c(ccc12)CNC3=O` [S18d], the “Residual enzyme activity CLK 1” value is reported as 66±3%.

What follows are compounds tested against CLK2 (Mus musculus, UniProt O35491) (assay: radiometric protein kinase assay). Conditions: 10 µM concentration; ± SEM.
CLK2, sequence (O35491 whole entry): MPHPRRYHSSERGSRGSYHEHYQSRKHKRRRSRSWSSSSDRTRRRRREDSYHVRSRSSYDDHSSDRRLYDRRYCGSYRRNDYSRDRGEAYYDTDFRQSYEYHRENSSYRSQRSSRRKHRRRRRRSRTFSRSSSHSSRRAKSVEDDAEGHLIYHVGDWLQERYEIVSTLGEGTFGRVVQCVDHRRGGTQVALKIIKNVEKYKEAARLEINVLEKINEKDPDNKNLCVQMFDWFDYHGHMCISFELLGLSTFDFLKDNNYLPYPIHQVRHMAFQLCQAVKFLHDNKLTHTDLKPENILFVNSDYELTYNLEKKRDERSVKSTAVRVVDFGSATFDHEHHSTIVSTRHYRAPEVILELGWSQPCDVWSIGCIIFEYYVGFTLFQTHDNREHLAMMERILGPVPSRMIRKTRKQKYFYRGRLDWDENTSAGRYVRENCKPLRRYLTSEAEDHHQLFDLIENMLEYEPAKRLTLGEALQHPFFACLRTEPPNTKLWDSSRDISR
Method: (§1) Buffers. Buffer A: 10 mM MgCl2, 1 mM EGTA, 1 mM DTT, 25 mM Tris-HCl pH 7.5, 50 μg heparin/mL. Buffer C: 60 mM β-glycerophosphate, 15 mM p-nitrophenylphosphate, 25 mM MOPS (pH 7.2), 15 mM EGTA, 15 mM MgCl2, 1 mM DTT, 1 mM sodium vanadate, 1 mM phenylphosphate.
(§2) Kinase activities were assayed in buffer A or C at 30°C at a final ATP concentration of 15 μmol/L. Blank values were subtracted and activities were expressed in percent of the maximal activity, i.e. in the absence of inhibitors. Controls were performed with appropriate dilutions of DMSO.
(§3) Their kinase activity was assayed in buffer A, with 1 mg histone H1/mL, in the presence of 15 μmol/L [γ-33P] ATP (3,000 Ci/mmol; 10 mCi/mL) in a final volume of 30 μL. After 30 min incubation at 30°C, the reaction was stopped by harvesting onto P81 phosphocellulose supernatant (Whatman) using a FilterMate harvester (Packard) and washing in 1% phosphoric acid. Scintillation fluid was added and the radioactivity measured in a Packard counter.
(§4) All data points for construction of dose response curves were recorded in triplicate.
`Cc1[nH]c2c3c(ccc2c1C)CNC3=O` [S18b] was tested, and the “Residual enzyme activity CLK 2” value was 63±17%.
For `CCc1c(-c2ccccc2)[nH]c2c3c(ccc12)CNC3=O` [S18d], the “Residual enzyme activity CLK 2” value was 66±5%.

The compounds below were run against CLK3 (Mus musculus, UniProt O35492) (assay: radiometric protein kinase assay). Conditions: 10 µM concentration; ± SEM.
CLK3, sequence (O35492 whole entry): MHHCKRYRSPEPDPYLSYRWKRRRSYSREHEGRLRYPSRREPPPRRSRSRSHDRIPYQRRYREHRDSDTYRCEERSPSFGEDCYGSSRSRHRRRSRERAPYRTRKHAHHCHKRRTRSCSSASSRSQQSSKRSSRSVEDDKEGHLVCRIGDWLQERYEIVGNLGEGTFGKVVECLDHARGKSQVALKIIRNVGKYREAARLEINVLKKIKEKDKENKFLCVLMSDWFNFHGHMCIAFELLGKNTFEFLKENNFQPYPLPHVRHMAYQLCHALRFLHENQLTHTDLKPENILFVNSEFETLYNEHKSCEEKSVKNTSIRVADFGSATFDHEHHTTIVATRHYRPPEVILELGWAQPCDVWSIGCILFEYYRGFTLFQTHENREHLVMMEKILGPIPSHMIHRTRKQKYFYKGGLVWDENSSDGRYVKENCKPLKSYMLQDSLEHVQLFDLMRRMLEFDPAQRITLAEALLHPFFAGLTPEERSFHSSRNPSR
`Cc1[nH]c2c3c(ccc2c1C)CNC3=O` [S18b] was tested, and the “Residual enzyme activity CLK 3” value was 104±14%.
With `CCc1c(-c2ccccc2)[nH]c2c3c(ccc12)CNC3=O` [S18d] the “Residual enzyme activity CLK 3” value was 110±16%.

Each compound was assayed against CLK4 (Mus musculus, UniProt O35493) (assay: radiometric protein kinase assay). Conditions: 10 µM concentration; ± SEM.
CLK4, sequence (O35493 whole entry): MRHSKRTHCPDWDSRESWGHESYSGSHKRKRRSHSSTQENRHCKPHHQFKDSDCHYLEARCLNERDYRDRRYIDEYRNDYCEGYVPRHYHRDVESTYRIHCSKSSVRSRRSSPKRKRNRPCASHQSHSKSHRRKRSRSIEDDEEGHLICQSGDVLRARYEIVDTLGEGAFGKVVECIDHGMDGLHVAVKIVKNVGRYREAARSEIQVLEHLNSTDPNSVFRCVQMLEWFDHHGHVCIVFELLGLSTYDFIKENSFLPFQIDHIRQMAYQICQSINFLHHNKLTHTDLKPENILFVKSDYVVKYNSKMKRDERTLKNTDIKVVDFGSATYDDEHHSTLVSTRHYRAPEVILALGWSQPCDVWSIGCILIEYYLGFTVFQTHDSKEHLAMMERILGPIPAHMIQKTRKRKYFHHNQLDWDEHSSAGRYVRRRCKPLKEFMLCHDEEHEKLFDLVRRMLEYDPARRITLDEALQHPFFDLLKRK
Method: as §1, §2, §3, §4
With `Cc1[nH]c2c3c(ccc2c1C)CNC3=O` [S18b] the “Residual enzyme activity CLK 4” value was 48±6%.
With `CCc1c(-c2ccccc2)[nH]c2c3c(ccc12)CNC3=O` [S18d] the “Residual enzyme activity CLK 4” value was 38±3%.
